This is an account of results in article PMC4674339 (European journal of medicinal chemistry, 2015).

For assay [1], the system named is P2Y12. Particulars: read-out: EC50 toward P2Y12; functional assay; cited from earlier work.
Assay [2] deals with P2Y1. Particulars: read-out: EC50 toward P2Y1; functional assay; cited from earlier work.
Assay [3] deals with ADP induced human platelet aggregation. The assay is described as follows: ADP-induced human platelet aggregation, 96-well microplate method. It is filed as cell-based.
In assay [4] the target is T1, platelet P2X1 receptors (Homo sapiens, UniProt P51575).
T1 sequence (P51575 1-399): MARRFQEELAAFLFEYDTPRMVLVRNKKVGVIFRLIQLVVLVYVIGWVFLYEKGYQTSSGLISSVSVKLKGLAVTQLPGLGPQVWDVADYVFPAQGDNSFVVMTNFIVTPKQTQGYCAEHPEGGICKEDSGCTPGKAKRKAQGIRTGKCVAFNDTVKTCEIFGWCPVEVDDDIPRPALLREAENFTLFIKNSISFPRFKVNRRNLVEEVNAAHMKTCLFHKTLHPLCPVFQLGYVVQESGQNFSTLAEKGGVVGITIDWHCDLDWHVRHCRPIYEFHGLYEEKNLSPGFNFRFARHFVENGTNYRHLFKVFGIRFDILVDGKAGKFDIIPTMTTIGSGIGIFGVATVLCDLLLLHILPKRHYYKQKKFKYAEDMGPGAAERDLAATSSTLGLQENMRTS
The assay is described as follows: P2X1-mediated entry of extracellular Ca2+. The format is cell-based.

Assay [5] addresses T2, human platelet P2Y12 receptors (Homo sapiens, UniProt Q9H244). Particulars: cited from earlier work.
The target of assay [6] is T1, platelet P2X1 receptors. To be noted: cited from earlier work.
Assay [7] concerns the target human platelet P2Y1 receptors (Homo sapiens, UniProt P47900). To be noted: read-out: P2Y1 inhibition IC50; cited from earlier work.
In assay [8] the target is T2, human platelet P2Y12 receptors. The assay is described as follows: P2Y12-mediated VASP phosphorylation assay. It is filed as cell-based.
[9] abbreviates: read-out: IC50, nM (95% Confidence Interval), no pre-incubation, 3 μM ADP.
Setting [10] is: read-out: IC50, nM (95% Confidence Interval), pre-incubation with test compound, 5 μM ADP.
Where [11] appears, read: read-out: IC50, nM (95% Confidence Interval), pre-incubation with test compound, 20 μM ADP.

Like-named read-outs stand apart in the source and are kept apart here.

The EC50 is the midpoint of the concentration-response curve. A word on the IC50: it is the concentration that gives 50% inhibition.

T2 sequence (Q9H244 whole entry): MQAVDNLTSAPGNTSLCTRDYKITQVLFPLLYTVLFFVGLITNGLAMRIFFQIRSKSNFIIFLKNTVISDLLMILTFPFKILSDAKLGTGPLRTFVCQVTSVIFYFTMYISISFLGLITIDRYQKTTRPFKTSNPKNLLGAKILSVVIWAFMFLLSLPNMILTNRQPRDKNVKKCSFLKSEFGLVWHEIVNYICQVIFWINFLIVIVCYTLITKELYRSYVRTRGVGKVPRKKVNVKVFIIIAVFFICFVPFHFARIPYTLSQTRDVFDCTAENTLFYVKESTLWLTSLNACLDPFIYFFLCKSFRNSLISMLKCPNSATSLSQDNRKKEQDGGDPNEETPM
human platelet P2Y1 receptors, sequence (P47900 whole entry): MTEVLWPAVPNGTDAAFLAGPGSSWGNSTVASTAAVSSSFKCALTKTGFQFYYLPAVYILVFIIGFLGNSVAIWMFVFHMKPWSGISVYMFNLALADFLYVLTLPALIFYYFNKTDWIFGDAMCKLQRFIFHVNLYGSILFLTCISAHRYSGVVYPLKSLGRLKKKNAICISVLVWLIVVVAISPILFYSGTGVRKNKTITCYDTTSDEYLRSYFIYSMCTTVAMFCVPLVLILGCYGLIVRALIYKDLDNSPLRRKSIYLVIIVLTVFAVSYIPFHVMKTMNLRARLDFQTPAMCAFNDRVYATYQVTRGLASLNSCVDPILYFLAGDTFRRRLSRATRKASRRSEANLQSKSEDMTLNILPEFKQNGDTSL

With “2-methylthioadenosine 5′-diphosphate [Compound 2-MeSADP]”, the EC50 in assay [1] was 0.3 nM; in assay [2], 0.006 µM.
With `Nc1ncnc2c1ncn2[C@@H]1O[C@H](COP(=O)(S)OP(=O)(O)C(Cl)P(=O)(O)OP(=O)(S)OC[C@H]2O[C@@H](n3cnc4c(N)ncnc43)[C@H](O)[C@@H]2O)[C@@H](O)[C@H]1O` (mixture of isomers) [Compound 1, reference compound], the half-inhibitory concentration (IC50) was 437 nM in assay [3] (setting [9]), 757 nM in assay [3] (setting [10]) and 7680 nM in assay [3] (setting [11]).
`CSc1nc(N)c2ncn([C@@H]3O[C@H](COP(=O)(S)OP(=O)(O)OP(=O)(O)OP(=O)(S)OC[C@H]4O[C@@H](n5cnc6c(N)nc(SC)nc65)[C@H](O)[C@@H]4O)[C@@H](O)[C@H]3O)c2n1` (mixture of isomers) [Compound 3, P^1,P^4-di-(2-methylthio-5′-adenosine) P^1,P^4-dithiotetraphosphate]: the IC50 in assay [3] (setting [9]) is 61.8 nM; in assay [3] (setting [10]), 70.3 nM; in assay [3] (setting [11]), 731 nM.
Taken in the same sequence, the figures for `CCSc1nc(N)c2ncn([C@@H]3O[C@H](COP(=O)(S)OP(=O)(O)C(Cl)P(=O)(O)OP(=O)(S)OC[C@H]4O[C@@H](n5cnc6c(N)nc(SCC)nc65)[C@H](O)[C@@H]4O)[C@@H](O)[C@H]3O)c2n1` (mixture of isomers) [Compound 6, P^1,P^4-di-(2-ethylthio-5′-adenosine) P^1,P^4-dithio-P^2,P^3-chloromethylenetetraphosphate] were 46.1 nM, 8.48 nM and 13.4 nM.
On the same counts, the results for `CCCSc1nc(N)c2ncn([C@@H]3O[C@H](COP(=O)(S)OP(=O)(O)C(Cl)P(=O)(O)OP(=O)(S)OC[C@H]4O[C@@H](n5cnc6c(N)nc(SCCC)nc65)[C@H](O)[C@@H]4O)[C@@H](O)[C@H]3O)c2n1` (mixture of isomers) [Compound 7, P^1,P^4-di-(2-propylthio-5′-adenosine) P^1,P^4-dithio-P^2,P^3-chloromethylenetetraphosphate] are 113 nM, 23.4 nM and 44.6 nM.
On the same counts, the results for `Nc1nc(SCCC(F)(F)F)nc2c1ncn2[C@@H]1O[C@H](COP(=O)(S)OP(=O)(O)C(Cl)P(=O)(O)OP(=O)(S)OC[C@H]2O[C@@H](n3cnc4c(N)nc(SCCC(F)(F)F)nc43)[C@H](O)[C@@H]2O)[C@@H](O)[C@H]1O` (mixture of isomers) [Compound 8, P^1,P^4-di-(2-(3,3,3-trifluoropropylthylthio)-5′-adenosine) P^1,P^4-dithio-P^2,P^3-chloromethylenetetraphosphate] are 144 nM, 15 nM and 26.6 nM.
For `CCCCCSc1nc(N)c2ncn([C@@H]3O[C@H](COP(=O)(S)OP(=O)(O)C(Cl)P(=O)(O)OP(=O)(S)OC[C@H]4O[C@@H](n5cnc6c(N)nc(SCCCCC)nc65)[C@H](O)[C@@H]4O)[C@@H](O)[C@H]3O)c2n1` (mixture of isomers) [Compound 9, P^1,P^4-di-(2-pentylthio-5′-adenosine) P^1,P^4-dithio-P^2,P^3-chloromethylenetetraphosphate], the IC50 in assay [3] (setting [9]) came out at 1090 nM; in assay [3] (setting [10]), 90.7 nM; in assay [3] (setting [11]), 172 nM.
On the same counts, the results for `Nc1nc(Cl)nc2c1ncn2[C@@H]1O[C@H](COP(=O)(S)OP(=O)(O)C(Cl)P(=O)(O)OP(=O)(S)OC[C@H]2O[C@@H](n3cnc4c(N)nc(Cl)nc43)[C@H](O)[C@@H]2O)[C@@H](O)[C@H]1O` (mixture of isomers) [Compound 10, P^1,P^4-di-(2-chloro-5′-adenosine) P^1,P^4-dithio-P^2,P^3-chloromethylenetetra-phosphate] are 140 nM, 369 nM and 2690 nM.
Take `Nc1nc(Br)nc2c1ncn2[C@@H]1O[C@H](COP(=O)(S)OP(=O)(O)C(Cl)P(=O)(O)OP(=O)(S)OC[C@H]2O[C@@H](n3cnc4c(N)nc(Br)nc43)[C@H](O)[C@@H]2O)[C@@H](O)[C@H]1O` (mixture of isomers) [Compound 11, P^1,P^4-di-(2-bromo-5′-adenosine) P^1,P^4-dithio-P^2,P^3-chloromethylenetetra-phosphate]: the IC50 in assay [3] (setting [9]) was 87.8 nM; in assay [3] (setting [10]), 173 nM; in assay [3] (setting [11]), 936 nM.
In the case of `Nc1nc(I)nc2c1ncn2[C@@H]1O[C@H](COP(=O)(S)OP(=O)(O)C(Cl)P(=O)(O)OP(=O)(S)OC[C@H]2O[C@@H](n3cnc4c(N)nc(I)nc43)[C@H](O)[C@@H]2O)[C@@H](O)[C@H]1O` (mixture of isomers) [Compound 12, P^1,P^4-di-(2-iodo-5′-adenosine) P^1,P^4-dithio-P^2,P^3-chloromethylenetetra-phosphate], the figures for the half-inhibitory concentration (IC50) in assay [3] (setting [9]), in assay [3] (setting [10]) and in assay [3] (setting [11]) were 49.9 nM, 48.5 nM and 416 nM, respectively.
On the same counts, the results for `CNc1ncnc2c1ncn2[C@@H]1O[C@H](COP(=O)(S)OP(=O)(O)C(Cl)P(=O)(O)OP(=O)(S)OC[C@H]2O[C@@H](n3cnc4c(NC)ncnc43)[C@H](O)[C@@H]2O)[C@@H](O)[C@H]1O` (mixture of isomers) [Compound 13, P^1,P^4-di-(N^6-methyl-5′-adenosine) P^1,P^4-dithio-P^2,P^3-chloromethylenetetraphosphate] are 5870 nM, 10700 nM and 37200 nM.
For `CCCNc1ncnc2c1ncn2[C@@H]1O[C@H](COP(=O)(S)OP(=O)(O)C(Cl)P(=O)(O)OP(=O)(S)OC[C@H]2O[C@@H](n3cnc4c(NCCC)ncnc43)[C@H](O)[C@@H]2O)[C@@H](O)[C@H]1O` (mixture of isomers) [Compound 14, P^1,P^4-di-(N^6-propyl-5′-adenosine) P^1,P^4-dithio-P^2,P^3-chloromethylenetetraphosphate], in assay [4] (read-out: P2X1 activation %±SEM), the activation at 1 µM was -0.01 ± 0.91%. Also, the results for the IC50 in assay [3] (setting [9]), in assay [3] (setting [10]) and in assay [3] (setting [11]) were 3930 nM, 12000 nM and 22400 nM, respectively.
Take `CNc1nc(SC)nc2c1ncn2[C@@H]1O[C@H](COP(=O)([S-])OP(=O)([O-])C(Cl)P(=O)([O-])OP(=O)([S-])OC[C@H]2O[C@@H](n3cnc4c(NC)nc(SC)nc43)[C@H](O)[C@@H]2O)[C@@H](O)[C@H]1O.[Na+].[Na+].[Na+].[Na+]` (mixture of isomers) [Compound 15, P^1,P^4-di-(2-methylthio-N^6-methyl-5′-adenosine) P^1,P^4-dithio-P^2,P^3-chloromethylenetetraphosphate]: in assay [4], the “P2X1 agonist activity” value is “effective P2X1 agonist”. In assay [3] (setting [9]), the 50% inhibitory concentration (IC50) was 616 nM.
Turning to `CSc1nc(N)c2ncn([C@@H]3O[C@H](COP(=O)(S)OP(=O)(O)C(Cl)(Cl)P(=O)(O)OP(=O)(S)OC[C@H]4O[C@@H](n5cnc6c(N)nc(SC)nc65)[C@H](O)[C@@H]4O)[C@@H](O)[C@H]3O)c2n1` (mixture of isomers) [Compound 16, P^1,P^4-di-(2-methylthio-5′-adenosine) P^1,P^4-dithio-P^2,P^3-dichloromethylenetetraphosphate], the IC50 in assay [3] (setting [9]) turned out to be 295 nM.
Turning to `Nc1ncnc2c1ncn2[C@@H]1O[C@H](COP(=O)(O)OP(=O)(O)O)[C@@H](O)[C@H]1O` [ADP, adenosine diphosphate], the values for the EC50 in assay [1] and in assay [2] were 69 nM and 8 µM, respectively.
On to `Nc1ncnc2c1ncn2[C@@H]1O[C@H](COP(=O)(O)OP(=O)(O)OP(=O)(O)OP(=O)(O)OC[C@H]2O[C@@H](n3cnc4c(N)ncnc43)[C@H](O)[C@@H]2O)[C@@H](O)[C@H]1O` [Ap4A, P^1,P^4-Di(adenosine-5′) tetraphosphate], for which the “P2Y12 antagonist character” value in assay [5] was “partial antagonist”. Moreover, the figures for the IC50 in assay [5] (read-out: P2Y12 inhibition IC50) and in assay [7] were above 250 µM and 32.5 µM, respectively. For the same compound, in assay [6], the “P2X1 agonist activity” value is listed as “effective P2X1 receptor agonist”.
Consider `CSc1nc(N)c2ncn([C@@H]3O[C@H](COP(=O)([O-])OP(=O)([O-])OP(=O)([O-])OP(=O)([O-])OC[C@H]4O[C@@H](n5cnc6c(N)nc(SC)nc65)[C@H](O)[C@@H]4O)[C@@H](O)[C@H]3O)c2n1.[Na+].[Na+].[Na+].[Na+]` [Compound 2, P^1,P^4-di-(2-Methylthio-5′-adenosine) tetraphosphate], for which the IC50 came out at 71.3 nM in assay [3] (setting [9]), 1020 nM in assay [3] (setting [10]) and 3950 nM in assay [3] (setting [11]). Also, in assay [8], the “P2Y12 antagonist character” value is “full antagonist”.
`CSc1nc(N)c2ncn([C@@H]3O[C@H](COP(=O)(O)OP(=O)(O)C(Cl)P(=O)(O)OP(=O)(O)OC[C@H]4O[C@@H](n5cnc6c(N)nc(SC)nc65)[C@H](O)[C@@H]4O)[C@@H](O)[C@H]3O)c2n1` (some centres unmarked) [Compound 4, P^1,P^4-di-(2-methylthio-5′-adenosine) P^2,P^3-chloromethylenetetraphosphate]: the IC50 in assay [3] (setting [9]) is 33.1 nM; in assay [3] (setting [10]), 8.89 nM; in assay [3] (setting [11]), 32.6 nM.
With `CNc1ncnc2c1ncn2[C@H]1C[C@H](OP(=O)(O)O)[C@@H](COP(=O)(O)O)O1` [MRS2179, reference compound], the “P2Y12 inhibition IC50±SEM” value in assay [8] (3 μM ADP, VASP phosphorylation, human blood) is “Not inhibitor”.
